US20050069907A1, “Methods for using double-mutant RNA polymerases with reduced discrimination between non-canonical and canonical nucleoside triphosphates” (priority 2002, published 2005)

Columns and labels:
RNA as a template = conditions: cited from earlier work
Bgl II-cut pPK5 = experiment: Run-off transcription with 2′-OMe- or 2′-azido-NTPs on Bgl II-cut pPK5; type: biochemical
Protocol: (§1) RNAPs were prepared as described (Brieba, L G, and Sousa, R. Biochemistry, 39: 919-923, 2000). Transcription reactions were carried out for 30 min. at room temperature in 40 mM Tris-Cl, pH 8.0, 6 mM MgCl2, 10 mM NaCl, 2 mM spermidine, with templates at 10^−7 M and RNAPs at 2×10^−7 M. All NTPs were used at 0.5 mM, and transcripts were labeled by inclusion of 1% v/v 800 Ci/mM […] in the reaction. Modified NTPs were from Trilink Biotechnologies. Reactions were stopped by addition of an equal volume of 90% formamide, 50 mM EDTA, 0.01% xylene cyanol, resolved by electrophoresis in 20% acrylamide, 1% bis-acrylamide, 1×TBE gels, and visualized on a Molecular Dynamics Phosphorimager.
The ability of the wild-type, Y639F and Y639F/H784A mutants to utilize 2′-OMe-UTP and 2′-OMe-CTP, and 2′-azido-UTP and 2′-azido-CTP in RNA synthesis was tested. On a Bgl II-cut pPK5 (Mentesanas, P. E., et al., “Characterization of Bacteriophage T7 RNA Polymerase Elongation Complexes,” J. Mol. Biol. 302:1049-1062, 2000) template in which CTP and UTP are first incorporated at +14 and +15, respectively, the wild-type enzyme can synthesize 34 nucleotide (nt) run-off transcripts in reactions in which UTP is replaced with 2′-OMe-UTP (FIG. 2a, lane 2) or in reactions in which CTP is replaced with 2′-OMe-CTP (FIG. 2a, lane 3). Relative to the reaction with 4 NTPs (FIG. 2a, lane 1), yields of run-off transcripts are reduced 6-fold and 21-fold in the 2′-OMe-UTP and 2′-OMe-CTP reactions, respectively. When both UTP and CTP are replaced with the corresponding 2′-OMe-NTPs, run-off transcription with the wild-type enzyme is undetectable (FIG. 2a, lane 4). Terminated transcripts are seen in these reactions at positions where 2′-OMe-UMP or 2′-OMe-CMP are incorporated (FIG. 2a, lanes 2-4). The Y639F mutation enhances utilization of the 2′-OMe-NTPs: relative to reactions with 4 NTPs (FIG. 2a, lane 5) runoff transcription with Y639F is reduced, respectively: 2-fold, 8-fold, and 55-fold in reactions with 2′-OMe-UTP, 2′-OMe-CTP, or both (FIG. 2a, lanes 6-8). With the Y639F/H784A double mutant the reduction in run-off transcript synthesis is <15% in reactions with 2′-OMe-UTP (FIG. 2a, lane 10), and only 3-fold and 6-fold in reactions with, respectively, 2′-OMe-CTP or both 2′-OMe-UTP and 2′-OMe-CTP (FIG. 2a, lanes 11, 12).
Identical experiments were carried out with 2′-azido-UTP or 2′-azido-CTP replacing UTP or CTP, respectively (FIG. 2b). With the wild-type enzyme, run-off transcription was reduced 15- and 50-fold in reactions with 2′-azido-UTP or 2′-azido-CTP, respectively (FIG. 2b; lanes 2, 3), and was undetectable in reactions with both 2′-azido-UTP and 2′-azido-CTP (FIG. 2b; lane 4). With Y639F, use of 2′-azido-UTP or 2′-azido-CTP reduced run-off transcription by 70% (FIG. 2b; lanes 6, 7) compared to reactions with 4 NTPs (FIG. 2b; lane 5), while use of both 2′-azido-UTP and 2′-azido-CTP reduced runoff transcription by 11-fold (FIG. 2b, lane 8). With Y639F/H784A use of a single azido-modified NTP reduced run-off transcription by only 40% (FIG. 2b; lanes 10, 11), while use of two 2′-azido-NTPs reduced it by 3-fold (FIG. 2b; lane 12).

HindIII-cut pT75 = experiment: Run-off transcription with 2′-OMe- or 2′-azido-NTPs on HindIII-cut pT75; type: biochemical
Protocol: as §1
With the pPK5 template, UMP and CMP are not incorporated into the first 9 nt of RNA. Incorporation of non-canonical NMPs during synthesis of the first 9 nt of RNA is expected to cause greater reductions in run-off transcript synthesis because the RNA is readily released from the transcription complex during this initial phase of transcription. Therefore, if incorporation of a non-canonical NMP is slow, the RNA will usually dissociate before the NMP is incorporated. […] To see whether NMPs with bulky 2′-substituents could be incorporated during the initial phase of transcription a Hind-III linearized pT75 (Tabor, S. and Richardson, C. C., “A bacteriophage T7 RNA polymerase/promoter system for controlled exclusive expression of specific genes,” Proc. Natl. Acad. Sci. USA 82:1074-1078, 1985) was used. On this template, UMP is first incorporated at +14 while CMP is incorporated at +6 and +7. In reactions with 2′-OMe-UTP run-off transcript synthesis is reduced 11-fold, 5-fold, and <2-fold with the wild-type, and the Y639F, and Y639F/H784A mutants, respectively (FIG. 2c; lanes 2, 6, 10). However, in reactions with 2′-OMe-CTP run-off transcription is undetectable with the wild-type or Y639F enzymes (FIG. 2c; lanes 3, 4, 7, 8), and is reduced ˜700-fold with Y639F/H784A (FIG. 2c; lanes 11, 12).
Run-off transcript yields in reactions with HindIII-cut pT75 and 2′-azido-UTP are reduced 18-, 8.5-, and <2-fold with wild-type and Y639F and Y639F/H784 mutants, respectively (FIG. 2d; lanes 2, 6, 10), relative to reactions with 4 NTPs (FIG. 2d; lanes 1, 5, 9). In reactions with 2′-azido-CTP, or both 2′-azido-CTP and 2′-azido-UTP, run-off transcription is undetectable with the wild-type enzyme (FIG. 2d; lanes 3, 4), is reduced 65-fold with Y639F (FIG. 2d; lanes 7, 8), but is reduced only 7-fold with Y639F/H784A (FIG. 2d; lanes 11, 12).

T7 Control Template = experiment: Incorporation of Cy5-UTP or Cy5-dCTP into transcripts (A650/A260); type: biochemical; conditions: FluoroLink Cy5-UTP or Cy5-dCTP in addition to UTP or CTP
Protocol: In separate experiments to evaluate the ability of the Y639F/H784A double mutant versus the Y639F single mutant of T7 RNAP to incorporate nucleoside triphosphates with substituents at other positions than the 2′-position of the sugar, in vitro transcription reactions are carried out with each mutant enzyme using a T7 Control Template from an AmpliScribe™ T7 High Yield Transcription Kit (EPICENTRE) and either FluoroLink™ Cy5-UTP or FluoroLink™ Cy5-dCTP (both from Amersham Biosciences) in the reaction mixture in addition to the corresponding canonical nucleotide, UTP or CTP. Following transcription, the product is precipitated with ammonium acetate and the relative amount of Cy5 dye in the transcripts are determined based on the A650/A260 absorption ratios.

[1] = even in Mn^2+ buffer; cited from earlier work

Molecule: E. coli DNA-directed DNA polymerase I: E. coli DNA polymerase I
- Increase in dNTP Km (RNA as a template): ~100 fold

Molecule: Y639F/H784A: Y639F/H784A double mutant of T7 RNAP
- Reduction of run-off transcript yield relative to 4 NTPs (Bgl II-cut pPK5; 2′-OMe-CTP replacing CTP): 3 fold
- Reduction in run-off transcript synthesis (Bgl II-cut pPK5; 2′-OMe-UTP replacing UTP): < 15%
- Reduction of run-off transcript yield relative to 4 NTPs (Bgl II-cut pPK5; both 2′-OMe-UTP and 2′-OMe-CTP): 6 fold
- Reduction of run-off transcription (Bgl II-cut pPK5; both 2′-azido-UTP and 2′-azido-CTP): 3 fold
- Reduction of run-off transcription (Bgl II-cut pPK5; single azido-modified NTP (2′-azido-UTP or 2′-azido-CTP)): 40%
- Reduction of run-off transcription (HindIII-cut pT75; 2′-OMe-CTP): ~700 fold
- Reduction of run-off transcript synthesis (HindIII-cut pT75; 2′-OMe-UTP): < 2 fold
- Reduction of run-off transcription (HindIII-cut pT75; 2′-azido-CTP, or both 2′-azido-CTP and 2′-azido-UTP): 7 fold
- Reduction of run-off transcript yields relative to 4 NTPs (HindIII-cut pT75; 2′-azido-UTP): < 2 fold
- A650/A260 absorption ratio of transcription products compared to Y639F single mutant (T7 Control Template): significantly higher

B1: T7 DNAP: T7 DNA polymerase (protein, UniProt P00581 1-704, looked up)
DNA-directed DNA polymerase: MIVSDIEANALLESVTKFHCGVIYDYSTAEYVSYRPSDFGAYLDALEAEVARGGLIVFHNGHKYDVPALTKLAKLQLNREFHLPRENCIDTLVLSRLIHSNLKDTDMGLLRSGKLPGKRFGSHALEAWGYRLGEMKGEYKDDFKRMLEEQGEEYVDGMEWWNFNEEMMDYNVQDVVVTKALLEKLLSDKHYFPPEIDFTDVGYTTFWSESLEAVDIEHRAAWLLAKQERNGFPFDTKAIEELYVELAARRSELLRKLTETFGSWYQPKGGTEMFCHPRTGKPLPKYPRIKTPKVGGIFKKPKNKAQREGREPCELDTREYVAGAPYTPVEHVVFNPSSRDHIQKKLQEAGWVPTKYTDKGAPVVDDEVLEGVRVDDPEKQAAIDLIKEYLMIQKRIGQSAEGDKAWLRYVAEDGKIHGSVNPNGAVTGRATHAFPNLAQIPGVRSPYGEQCRAAFGAEHHLDGITGKPWVQAGIDASGLELRCLAHFMARFDNGEYAHEILNGDIHTKNQIAAELPTRDNAKTFIYGFLYGAGDEKIGQIVGAGKERGKELKKKFLENTPAIAALRESIQQTLVESSQWVAGEQQVKWKRRWIKGLDGRKVHVRSPHAALNTLLQSAGALICKLWIIKTEEMLVEKGLKHGWDGDFAYMAWVHDEIQVGCRTEEIAQVVIETAQEAMRWVGDHWNFRCLLDTEGKMGPNWAICH
- Selectivity for dNTPs over rNTPs [1]: at least 2,000 fold
